From patent US7297714B2, “Inhibitors of cathepsin S” (IRM LLC, priority 2003, dated 2007)

Assays:
Type in all cases: biochemical
Cathepsin S = Cathepsin S (Homo sapiens, UniProt P25774); assay: Cathepsin S inhibition assay (fluorogenic peptide substrate); conditions: Cathepsin S inhibition constant; pH5.5; read-out: Ki Cat. S
Description: “Inhibition constant”, Ki, is the dissociation constant of the enzyme-inhibitor complex, or the reciprocal of the binding affinity of the inhibitor to the enzyme. For classical inhibition the value of Ki is much greater than the enzyme concentration and the Ki can be measured by monitoring the rate of reaction for a competitive substrate at multiple inhibitor concentrations. The inhibited rates are then fit by nonlinear regression to the following equation: […]
The assumption being made for the classical inhibition described above is that the free inhibitor concentration is equal to the total inhibitor concentration. For inhibitors that have Ki's that are approximately equal to the enzyme concentration [E], the assumption that the free inhibitor concentration is equal to the total inhibitor concentration is no longer valid and an alternative equation has to be fit for determination of the apparent inhibition constant, Ki^app using described methods (Kuzmic, P., K. C. Elrod, et al., Anal Biochem 2000, 286(1), 45-50):
(§1) The optimal substrate for cathepsin S, acetyl-histidine-proline-valine-lysine-amino carbamoyl coumarin, was identified from screening a combinatorial library of fluorogenic peptide substrates (Harris, J. L., B. J. Backes, et al., Proc Natl Acad Sci U S A 2000, 97(14), 7754-9). Kinetic measurements are performed in a total reaction volume of 30 μl in 384-well microtiter plates. Cathepsin S, at a final concentration of 0.3-3 nM (active site), is incubated with the compounds at twelve varying concentrations in a buffer containing 100 mM NaAc (pH5.5), 1 mM EDTA, 100 mM NaCl, 0.01% Brij-35 for 20 minutes at room temperature. Control reactions in the absence of inhibitor are performed in replicates of 24. The reactions are initiated by adding the substrate, acetyl-histidine-proline-valine-lysine-amino carbamoyl coumarin, to a final concentration of 50 μM. The rate of substrate hydrolysis is measured by monitoring the increase in fluorescence at an excitation wavelength of 380 nm and an emission wavelength of 450 nm that results from cleavage of the aniline bond in the substrate by the enzyme. The apparent inhibition constants for the compounds are determined from the enzyme progress curves (Kuzmic, P., K. C. Elrod, et al., Anal Biochem 2000, 286(1), 45-50) and are then used to calculate the inhibition constants for competitive inhibitors.

Cathepsin K = target: T1, Cathepsin K (Homo sapiens, UniProt P43235); assay: Cathepsin K inhibition assay, selectivity for cathepsin S over cathepsin K; conditions: ratio of cathepsin K inhibition constant to cathepsin S inhibition constant
T1 sequence (P43235 115-329): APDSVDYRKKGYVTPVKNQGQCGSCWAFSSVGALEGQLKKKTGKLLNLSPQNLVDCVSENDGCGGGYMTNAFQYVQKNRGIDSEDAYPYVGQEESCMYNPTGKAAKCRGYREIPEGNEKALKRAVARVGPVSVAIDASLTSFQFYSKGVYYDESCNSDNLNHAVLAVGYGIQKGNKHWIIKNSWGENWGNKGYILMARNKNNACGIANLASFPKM
Protocol: as §1, with “cathepsin K, acetyl-lysine-histidine-proline-lysine-amino” for “cathepsin S, acetyl-histidine-proline-valine-lysine-amino”, “Sci USA” for “Sci U S A”, “Cathepsin K,” for “Cathepsin S,”, “of 3.5” for “of 0.3-3”, “substrate, acetyl-lysine-histidine-proline-lysine-amino” for “substrate, acetyl-histidine-proline-valine-lysine-amino”, “of 40” for “of 50”
Selectivity for cathepsin S in the presence of cathepsin isozymes was determined by the ratio of the cathepsin isozyme inhibition constant of a compound of the present invention to the cathepsin S inhibition constant of the same compound. Preferred compounds of the present invention selective for cathepsin S have ratios of greater than 10. More preferred compounds of the present invention selective for cathepsin S have ratios of greater than 100. Most preferred compounds of the present invention selective for cathepsin S have ratios of greater than 1000.

Caspase 8 = Caspase 8 (Homo sapiens, UniProt Q14790); assay: Inhibition Assay for Caspase 8; conditions: Caspase-8 inhibition constant; pH 7.4; read-out: Ki Cas-8
Protocol: The widely used substrate for caspase 8, […]-amino carbamoyl coumarin, was used. Kinetic measurements are performed in a total reaction volume of 30 μl in 384-well microtiter plates. Caspase 8, at a final concentration of 0.2-1 nM (active site), is incubated with the compounds at twelve varying concentrations in a buffer containing 20 mM Hepes (pH 7.4), 1 mM EDTA, 100 mM NaCl, 0.1% CHAPS, 10% sucrose, 10 mM DTT for 20 minutes at room temperature. Control reactions in the absence of inhibitor are performed in replicates of 12. The reactions are initiated by adding the substrate to a final concentration of 2 μM. The rate of substrate hydrolysis is measured by monitoring the increase in fluorescence at an excitation wavelength of 380 nm and an emission wavelength of 450 nm that results from cleavage of the aniline bond in the substrate by the enzyme. The apparent inhibition constants for the compounds are determined from the enzyme progress curves (Kuzmic, Elrod et al. 2000) and are then used to calculate the inhibition constants for competitive inhibitors (Km=25.7 μM).

Sequence of Cathepsin S (P25774 115-331, species assumed): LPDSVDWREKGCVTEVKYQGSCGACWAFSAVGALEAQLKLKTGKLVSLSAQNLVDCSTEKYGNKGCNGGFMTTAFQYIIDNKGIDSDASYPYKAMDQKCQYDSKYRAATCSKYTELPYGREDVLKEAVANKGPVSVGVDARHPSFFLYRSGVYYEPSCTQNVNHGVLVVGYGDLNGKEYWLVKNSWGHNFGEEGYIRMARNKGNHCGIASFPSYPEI
Sequence of Caspase 8 (Q14790 217-374 limits assumed, species assumed): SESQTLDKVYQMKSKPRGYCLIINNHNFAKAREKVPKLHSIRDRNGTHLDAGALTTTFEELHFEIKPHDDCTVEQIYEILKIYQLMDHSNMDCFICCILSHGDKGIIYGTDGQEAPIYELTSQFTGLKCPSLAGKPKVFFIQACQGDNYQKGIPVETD
Sequence of Caspase 8 (Q14790 385-479 limits assumed, species assumed): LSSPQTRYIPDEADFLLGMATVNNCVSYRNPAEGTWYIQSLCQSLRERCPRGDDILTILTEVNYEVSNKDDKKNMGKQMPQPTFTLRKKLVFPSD

| SMILES | Ki (Cathepsin S) [nM] | Selectivity for Cat. S over Cat. K (Cathepsin K) | Ki (Caspase 8) [nM] |
| --- | --- | --- | --- |
| O=C1C[C@H](NC(=O)[C@H](CC2CCCC2)NC(=O)c2ccc(-c3cccc(F)c3)o2)C(O)O1 (stereo partly drawn) [Example 1, (3S)-(3-Cyclopentyl-(2S)-{[5-(3-fluoro-phenyl)-furan-2-carbonyl]-amino}-propionylamino)-4-oxo-butyric acid] | < 100 | + (+, >10) | > 1000 |
| O=C1C[C@H](NC(=O)[C@H](CC2CCCC2)NC(=O)N2CCOCC2)C(O)O1 (stereo partly drawn) [Example 2, (3S)-{3-Cyclopentyl-(2S)-[(morpholine-4-carbonyl)-amino]-propionylamino}-4-oxo-butyric acid] | < 100 | ++ (++, >100) | > 10000 |
| O=C1C[C@H](NC(=O)[C@H](CC2CCCCC2)OC(=O)N2CCOCC2)C(O)O1 (stereo partly drawn) [Example 3, (3S)-{3-cyclohexyl-(2S)-(morpholine-4-carbonyloxy)-propionylamino}-4-oxo-butyric acid] | < 100 | + (+, >10) | > 10000 |
| O=C[C@H](CC(=O)O)NC(=O)[C@@H](CC(=O)N1CCOCC1)CC1CCCC1 [Example 4, (3S)-[(2R)-Cyclopentylmethyl-4-morpholin-4-yl-4-oxo-butyrylamino]-4-oxo-butyric acid] | < 100 | + (+, >10) | > 10000 |
| O=C1C[C@H](NC(=O)O[C@@H](CC2CCCC2)Cn2cnc3cc(Cl)c(Cl)cc32)C(O)O1 (stereo partly drawn) [Example 5, (3S)-[(1S)-Cyclopentylmethyl-2-(5,6-dichloro-benzoimidazol-1-yl)-ethoxycarbonylamino]-4-oxo-butyric acid] | < 100 | + (+, >10) | > 10000 |
| O=C1C[C@H](NC(=O)[C@@H](CC(=O)N2CCOCC2)CC2CCCCC2)C(O)O1 (stereo partly drawn) [Example 6, (3S)-{(2R)-Cyclohexylmethyl-4-morpholin-4-yl-4-oxo-butyrylamino}-4-oxo-butyric acid] | < 100 | ++ (++, >100) | > 10000 |
| O=C1C[C@H](NC(=O)[C@H](CC2CCCCC2)NS(=O)(=O)c2cccc(OC(F)(F)F)c2)C(O)O1 (stereo partly drawn) [Example 7, (3S)-[3-Cyclohexyl-(2S)-(3-trifluoromethoxy-benzenesulfonylamino)-propionylamino]-4-oxo-butyric acid] | < 100 | ++ (++, >100) | > 10000 |
| O=C1C[C@H](NC(=O)[C@H](CC2CCCC2)NS(=O)(=O)c2cccc(OC(F)(F)F)c2)C(O)O1 (stereo partly drawn) [Example 8, (3S)-[3-Cyclopentyl-(2S)-(3-trifluoromethoxy-benzenesulfonylamino)-propionylamino]-4-oxo-butyric acid] | < 100 | ++ (++, >100) | > 10000 |
| CC(C)(C)C[C@H](OC(=O)N[C@H]1CC(=O)OC1O)C(=O)N1CCOCC1 (stereo partly drawn) [Example 9, (3S)-[3,3-Dimethyl-(1S)-(morpholine-4-carbonyl)-butoxycarbonylamino]-4-oxo-butyric acid] | < 100 | – | > 100000 |
| O=C1C[C@H](NC(=O)O[C@@H](CC2CCCCC2)C(=O)N2CCOCC2)C(O)O1 (stereo partly drawn) [Example 10, (3S)-[2-cyclohexyl-(1S)-(morpholin-4-carbonyl)-ethoxycarbonylamino]-4-oxo-butyric acid] | < 100 | ++ (++, >100) | > 100000 |
